From PubChem BioAssay (NCI)
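Assay format: 96-well plates, 48-hour exposure. At the TGI there is no net growth.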

Tests used:
Assay in all cases: NCI anticancer screen, dose series, 48 h
[1] = test system: BT-549 breast
[2] = test system: SN12C renal
[3] = test system: HS 578T breast
[4] = test system: NCI-H460 lung
[5] = test system: CAKI-1 renal
[6] = test system: SR leukemia
[7] = test system: HCC-2998 colon
[8] = test system: OVCAR-3 ovarian
[9] = test system: OVCAR-8 ovarian
[10] = test system: HL-60(TB) leukemia
[11] = test system: SNB-75 CNS
[12] = test system: SW-620 colon
[13] = test system: MDA-MB-435
[14] = test system: 786-0 renal
[15] = test system: MCF7 breast
[16] = test system: UACC-62 melanoma
[17] = test system: HCT-116 colon
[18] = test system: M14 melanoma
[19] = test system: COLO 205 colon
[20] = test system: NCI-H522 lung
[21] = test system: SF-295 CNS
[22] = test system: UACC-257 melanoma
[23] = test system: NCI-H23 lung
[24] = test system: SK-OV-3 ovarian
[25] = test system: MOLT-4 leukemia
[26] = test system: OVCAR-4 ovarian
[27] = test system: ACHN renal
[28] = test system: DU-145 prostate
[29] = test system: HOP-92 NSCLC
[30] = test system: EKVX NSCLC
[31] = test system: SNB-19 CNS
[32] = test system: MDA-N
[33] = test system: A498 renal
[34] = test system: SF-268 CNS
[35] = test system: SK-MEL-2 melanoma
[36] = test system: UO-31 renal
[37] = test system: HT29 colon
[38] = test system: MDA-MB-231 breast
[39] = test system: NCI-H226 lung
[40] = test system: A549 NSCLC
[41] = test system: HOP-62 NSCLC
[42] = test system: LOX IMVI melanoma
[43] = test system: NCI/ADR-RES ovarian
[44] = test system: TK-10 renal
[45] = test system: RPMI-8226 leukemia
[46] = test system: CCRF-CEM leukemia
[47] = test system: IGROV1 ovarian
[48] = test system: T-47D breast
[49] = test system: RXF 393 renal
[50] = test system: K-562 leukemia
[51] = test system: HCT-15 colon
[52] = test system: SK-MEL-5 melanoma
[53] = test system: OVCAR-5 ovarian
[54] = test system: KM12 colon
[55] = test system: U251 CNS
[56] = test system: SF-539 CNS
[57] = test system: PC-3 prostate
[58] = test system: MALME-3M melanoma
[59] = test system: DLD-1 colon
[60] = test system: SK-MEL-28 melanoma
[61] = test system: DMS 114 small cell lung
[62] = test system: DMS 273 small cell lung
[63] = test system: KM20L2 colon
[64] = test system: HOP-18 NSCLC
[65] = test system: M19-MEL melanoma
[66] = test system: LXFL 529 NSCLC

## CCOC(=O)/C(=C\c1ccc(F)cc1)C(C)=O
[1]
  TGI: 51.4 µM
[2]
  TGI: > 100 µM
[3]
  TGI: > 100 µM
[4]
  TGI: 97.4 µM
[5]
  TGI: > 100 µM
[6]
  TGI: 64 µM
[7]
  TGI: 26.6 µM
[8]
  TGI: > 100 µM
[9]
  TGI: 94.6 µM
[10]
  TGI: 53.2 µM
[11]
  TGI: 74.2 µM
[12]
  TGI: > 100 µM
[13]
  TGI: > 100 µM
[14]
  TGI: 49.4 µM
[15]
  TGI: 96.6 µM
[16]
  TGI: 38.1 µM
[17]
  TGI: 91.8 µM
[18]
  TGI: 60.9 µM
[19]
  TGI: > 100 µM
[20]
  TGI: 29.5 µM
[21]
  TGI: 79.3 µM
[22]
  TGI: 44.7 µM
[23]
  TGI: 46 µM
[24]
  TGI: > 100 µM
[25]
  TGI: 89 µM
[26]
  TGI: > 100 µM
[27]
  TGI: 50.7 µM
[28]
  TGI: 56.8 µM
[29]
  TGI: 44.3 µM
[30]
  TGI: 83.6 µM
[31]
  TGI: > 100 µM
[32]
  TGI: > 100 µM
[33]
  TGI: 34.9 µM
[34]
  TGI: > 100 µM
[35]
  TGI: 41.2 µM
[36]
  TGI: 31.2 µM
[37]
  TGI: > 100 µM
[38]
  TGI: 52 µM
[39]
  TGI: 75.2 µM
[40]
  TGI: > 100 µM
[41]
  TGI: > 100 µM
[42]
  TGI: 36.7 µM
[43]
  TGI: > 100 µM
[44]
  TGI: 52.3 µM
[45]
  TGI: 53 µM
[46]
  TGI: > 100 µM
[47]
  TGI: 38.9 µM
[48]
  TGI: 63.9 µM
[49]
  TGI: 34.8 µM
[50]
  TGI: > 100 µM
[51]
  TGI: 44.2 µM
[52]
  TGI: 47.1 µM
[53]
  TGI: > 100 µM
[54]
  TGI: 69 µM
[55]
  TGI: 40.7 µM
[56]
  TGI: > 100 µM
[57]
  TGI: 38.2 µM
[58]
  TGI: 43.1 µM

## CCOC12SC(=Nc3ccc(C)cc3)NN1C(=S)N(C)N=C2C (configuration not stated)
[2]
  TGI: > 100 µM
[59]
  TGI: > 100 µM
[60]
  TGI: > 100 µM
[4]
  TGI: > 100 µM
[61]
  TGI: > 100 µM
[6]
  TGI: > 100 µM
[62]
  TGI: > 100 µM
[9]
  TGI: > 100 µM
[10]
  TGI: > 100 µM
[11]
  TGI: > 100 µM
[12]
  TGI: > 100 µM
[14]
  TGI: > 100 µM
[63]
  TGI: > 100 µM
[16]
  TGI: > 100 µM
[64]
  TGI: > 100 µM
[17]
  TGI: > 100 µM
[18]
  TGI: > 100 µM
[19]
  TGI: > 100 µM
[20]
  TGI: > 100 µM
[21]
  TGI: > 100 µM
[22]
  TGI: > 100 µM
[23]
  TGI: > 100 µM
[25]
  TGI: > 100 µM
[26]
  TGI: > 100 µM
[27]
  TGI: > 100 µM
[29]
  TGI: > 100 µM
[30]
  TGI: > 100 µM
[31]
  TGI: > 100 µM
[33]
  TGI: > 100 µM
[34]
  TGI: > 100 µM
[65]
  TGI: > 100 µM
[37]
  TGI: > 100 µM
[39]
  TGI: > 100 µM
[40]
  TGI: > 100 µM
[41]
  TGI: > 100 µM
[66]
  TGI: > 100 µM
[42]
  TGI: > 100 µM
[45]
  TGI: > 100 µM
[46]
  TGI: > 100 µM
[47]
  TGI: > 100 µM
[49]
  TGI: > 100 µM
[50]
  TGI: > 100 µM
[51]
  TGI: > 100 µM
[52]
  TGI: > 100 µM
[53]
  TGI: > 100 µM
[54]
  TGI: > 100 µM
[55]
  TGI: > 100 µM
[56]
  TGI: > 100 µM

## CC[C@@H]1CC[C@@H]2[C@H](CC[C@]3(C)[C@@H](OS(=O)(=O)c4ccc(C)cc4)CC[C@@H]23)[C@H]1CO
[1]
  TGI: > 100 µM
[2]
  TGI: > 100 µM
[60]
  TGI: > 100 µM
[3]
  TGI: > 100 µM
[4]
  TGI: > 100 µM
[5]
  TGI: > 100 µM
[6]
  TGI: > 100 µM
[7]
  TGI: > 100 µM
[8]
  TGI: > 100 µM
[9]
  TGI: > 100 µM
[10]
  TGI: > 100 µM
[11]
  TGI: > 100 µM
[12]
  TGI: > 100 µM
[13]
  TGI: > 100 µM
[14]
  TGI: > 100 µM
[15]
  TGI: > 100 µM
[17]
  TGI: > 100 µM
[18]
  TGI: > 100 µM
[19]
  TGI: > 100 µM
[20]
  TGI: > 100 µM
[21]
  TGI: > 100 µM
[22]
  TGI: > 100 µM
[23]
  TGI: > 100 µM
[25]
  TGI: > 100 µM
[26]
  TGI: > 100 µM
[27]
  TGI: > 100 µM
[28]
  TGI: > 100 µM
[29]
  TGI: > 100 µM
[30]
  TGI: > 100 µM
[31]
  TGI: > 100 µM
[32]
  TGI: > 100 µM
[33]
  TGI: > 100 µM
[34]
  TGI: > 100 µM
[36]
  TGI: 52.5 µM
[37]
  TGI: > 100 µM
[38]
  TGI: > 100 µM
[39]
  TGI: > 100 µM
[40]
  TGI: > 100 µM
[41]
  TGI: > 100 µM
[42]
  TGI: > 100 µM
[43]
  TGI: > 100 µM
[44]
  TGI: > 100 µM
[45]
  TGI: > 100 µM
[46]
  TGI: > 100 µM
[47]
  TGI: > 100 µM
[48]
  TGI: > 100 µM
[49]
  TGI: > 100 µM
[50]
  TGI: > 100 µM
[51]
  TGI: > 100 µM
[52]
  TGI: > 100 µM
[53]
  TGI: > 100 µM
[54]
  TGI: > 100 µM
[55]
  TGI: > 100 µM
[56]
  TGI: > 100 µM
[57]
  TGI: > 100 µM
[58]
  TGI: > 100 µM
